# Assay results: patent US20100063139A1, “USE IN A COSMETIC COMPOSITION OF LIPOCHROMAN-6 TO ENHANCE THE RADIANCE OF THE COMPLEXION OF THE SKIN, ESPECIALLY THE SKIN OF THE FACE” (LVMH RECHERCHE, priority 2008, published 2010)
# Values joined by “and” are separate entries in the source; they are usually repeats but may differ in a detail not shown here. Identical values can stand only once.
# Columns and labels:
# Format in all cases: cell-based
# [1] = test system: gene MsrB (msrb); assay: Quantitative RT-PCR (RT-Q-PCR) of msrb gene expression in normal human epidermal keratinocytes; details: 24 h, NHK; for % Control (msrb/G3PDH): control = 100; for Mb Cycles (msrb): triplicate PCR cycle numbers
# Procedure: (§1) The effect of lipochroman-6 on the basal expression of genes coding for the proteins MsrA and MsrB is evaluated by the method of quantitative RT-PCR (real-time PCR; RT-Q-PCR).
# (§2) The model selected is that of normal human epidermal keratinocytes (NHK) cultivated in vitro.
# (§3) Type: normal human epidermal keratinocytes (NHK)
# (§4) Test medium: SFM medium without EGF and without PE (SFM-PE-EGF)
# (§5) Lipochroman-6: stock solution at 10 mg/ml in ethanol, diluted in test medium at concentrations of 0.01 mg/ml and 0.005 mg/ml.
# (§6) The keratinocytes are seeded and pre-cultured for 24 hours in complete SFM culture medium (24-well plates) and then placed in SFM-PE-EGF medium.
# (§7) At confluence, the cells are treated or not (control) with the test product and are cultured for 24 h at 37° C. and 5% CO2. Each treatment is carried out in triplicate. The culture supernatants are then harvested and the cell layers are rinsed with PBS solution (Invitrogen), and then 300 μl of tri-reagent (Sigma) are added. The plates are subsequently frozen at −80° C.
# (§8) The expression of the genes msra and msrb is evaluated by RT-Q-PCR on the basis of the messenger RNA (mRNA) extracted from the cell layers of each treatment. For each treatment, the three samples are combined into one prior to the extraction of the RNA.
# (§9) The main steps of the protocol are as follows: • Extraction of the total RNA using tri-reagent, according to the protocol of the supplier. • Removal of traces of potentially contaminating DNA by treatment with the DNA-free system (Ambion). • Implementation of the reverse transcription reaction in the presence of the primer oligo(dT) and the enzyme Superscript II (Gibco).
# (§10) The PCR reactions are carried out with the aid of the following primers: […]
# (§11) The PCR (polymerase chain reaction) reactions are carried out by quantitative PCR with the Light Cycler system (Roche Molecular Systems Inc.) according to the procedures recommended by the supplier. To perform correctly, this analytical system requires prior development of the conditions of analysis of the different primers. This system is formed of two main components: an optimized thermocycler, which allows extremely rapid heat transfers, and a fluorimeter, which continuously measures the fluorescence intensity incorporated in the DNA (detection at 521 nm). The reaction mixture (10 μl final) for each sample is as follows: • 2.5 μl of cDNA diluted to 1/10th • primers of the different markers used • reaction mixture (Roche) containing the enzyme taq DNA polymerase, the marker SYBR Green I (a fluorophore which is integrated into the double-stranded DNA in the course of the elongation step) and MgCl2.
# (§12) The incorporation of fluorescence into the amplified DNA is measured continuously during the PCR cycles. […] The number of cycles is determined on the basis of the “exit” points of the fluorescence curves. For a given marker analysed, the later the exit of a sample (high number of cycles) the lower the initial number of copies of the mRNA. The relative expression (RE) value is expressed in arbitrary units (AU) in accordance with the following formula: (½^number of cycles)×10^6.
# [2] = test system: normal human keratinocytes (NHK); assay: Immunostaining (DNPH/anti-DNP) of oxidized proteins in normal human keratinocytes, confocal image analysis; details: for DNP marking/No. of cells / DNP marking/surface area measured / Surface area DNP marking: 48 h; for Proportion of oxidized proteins/cells, KHN 0002: donor KHN 0002; for Proportion of oxidized proteins/cells, KHN 9726: donor KHN 9726; for Proportion of oxidized proteins/cells, Mean: mean of two donors
# Procedure: Normal human keratinocytes (NHK) isolated from harvesting of human skin carried out on two different donors (labelled KHN002 and KHN 9726 hereinafter) are cultured in T75 flasks in complete KSFM medium (KSFMc) (Invitrogen GIBCO) at 37° C. and 5% CO2 and are seeded at 20 000 cells per well in 8-well Lab-Tek II culture systems (Nalge Nunc International).
# After 48 h of culture, the cells are treated with the treatment solutions (see below).
# A 0.004% weight/volume lipochroman-6 solution is prepared (solution A).
# This is done by dissolving 20 mg of lipochroman-6 powder (supplier: Lipotec) in 2 ml of ethanol (solution at 10 mg/ml). This solution is diluted (40 μl of the stock solution in 10 ml of KSFm medium) to give solution A.
# The treatment solutions are prepared by diluting solution A prepared above in the KSFMc medium, to give the correct percentage of lipochroman-6.
# Treatments carried out on 3 wells per cell type: • control: KSFMc • solvent control: 0.1% solution of ethanol in KSFMc medium • 0.001% lipochroman • 0.002% lipochroman
# After 48 hours of treatment, the KSFMc is drawn off. The cells are rinsed with phosphate buffer (PBS) (PBS tablets, Invitrogen GIBCO), then fixed with formalin (formalin solution 10% neutral buffered, Sigma) for 10 minutes at ambient temperature. After rinsing with PBS, the culture chambers are filled with 0.1% triton solution (Triton X-100, Sigma) for 10 minutes, then rinsed with PBS.
# The subsequently disassembled culture chambers and the slides are immersed in a solution of 2,4-dinitrophenylhydrazine (300 mg of DNPH (Fluka)) in an ethanol/sulphuric acid (98.5 ml/1.5 ml) mixture for 30 minutes.
# The dinitrophenyl (DNP) groups fixed to the oxidized proteins are recognized by a primary anti-DNP antibody.
# For this purpose, in a first step, the slides are covered with a solution of primary antibody (monoclonal mouse anti-DNP antibody, Sigma), diluted to 1/500th in a 1% BSA/PBS solution, and are incubated for 60 minutes in an oven at ambient temperature and then rinsed with a 0.1% Tween-PBS solution (Tween20, Merck). In a second step, the cells are covered with a secondary antibody solution (Alexafluor 546 goat anti-mouse, Invitrogen) in a 1% BSA/PBS solution, and are incubated away from the light for 60 minutes. The slides are subsequently rinsed with PBS-Tween and then with PBS.
# The photographs are made by confocal microscopy (Axioplan microscope from Zeiss and krypton-argon laser from BioRad) with the aid of the LaserSharp 2000 software (BioRad). For each condition, three photographs are made with the ×40 lens, according to the same acquisition parameters (gain, iris).
# In practice, an excitation fluorescence at 546 nm is applied by the confocal laser to the cells. The fluorochrome Alexafluor 546, which represents the oxidized proteins, emits fluorescence at 573 nm, which is recovered by a specific filter and can be observed. The measured fluorescence is therefore directly proportional to the amount of oxidized proteins.
# The photographs are analysed with the aid of the Leica QWin image analysis software. A program allows the DNPH staining to be quantified in order to evaluate the level of oxidized proteins and the number of cells.
# The program detects the fluorescent staining of the oxidized proteins. A detection zone which is as representative as possible (number, size, cell density, intensity of marking) is delimited. The fluorescence of the oxidized proteins is measured in the delimited zone, and the cells in the same zone are numbered by counting of the cell nuclei (see FIGS. 2a, 2b, 2c, 2d and 2e).
# The effect of lipochroman-6 on the oxidation of proteins is measured on the two types of normal human keratinocytes (NHK). This is done by estimating the surface area of staining of the oxidized proteins, the surface area of the measurement zone and the number of cells in the measurement surface area, using an image processing system.
# [3] = test system: gene MsrA (msra); assay: Quantitative RT-PCR (RT-Q-PCR) of msra gene expression in normal human epidermal keratinocytes; details: 24 h, NHK; for % Control (msra/G3PDH): control = 100; for Mb Cycles (msra): triplicate PCR cycle numbers
# Procedure: as §1, §2, §3, §4, §5, §6, §7, §8, §9, §10, §11, §12
# [4] = test system: methionine sulphoxide reductase (Msr); assay: Msr activity in protein extracts of treated human keratinocytes (N-acetyl-(3H)-methionine-R,S sulphoxide substrate); details: dose of 0.05%; human keratinocytes in culture, 24 h treatment
# Procedure: The keratinocytes are obtained from grafts of skin originating from abdomens of healthy donors aged 47 years.
# Lipochroman-6 powder (supplier: Lipotec) is first diluted in 20 μl of absolute ethanol. Then a stock solution at 10 mg/ml in the K-SFM-S medium is prepared.
# An intermediate solution at 1 mg/ml (dilution 20 μl in 200 μl of K-SFM-S medium) is prepared from the lipochroman-6 stock solution.
# The dilutions are carried out in the K-SFM-S medium on the basis of the intermediate solution at 1 mg/ml.
# The medium is drawn off from the cell flasks (passage P3) and replaced with the medium containing the different dilutions of actives. After 24 hours of treatment, the cells are washed with PBS buffer and then treated with trypsin. The cells are finally counted with a NucleoCounter from Chemometec (Bioblock). […]
# The Msr activity is measured on the basis of the protein extracts by using the substrate N-acetyl-(^3H)-methionine-(R, S) sulphoxide in a reaction mixture of 30 μl containing Tris-HCl pH 7.5, 25 mM, MgCl2 10 mM, DTT 15 mM, at 37° C. […]
# The required quantity of proteins is withdrawn and made up with water to a reaction volume of 20.8 μl in a 2 ml Eppendorf tube stored in ice. […]
# Following centrifugation at 15 000 g for 5 minutes at ambient temperature, 1 ml of the upper, organic phase is withdrawn and is counted in a scintillation vial and admixed with 2 ml of Sigma Fluor scintillant. […]
structure (smiles),measurement,setting,value
COc1cc2c(cc1O)CCC(C)(C)O2 [Lipochroman-6],Mb/G3PDH (msrb/G3PDH),[1]; 0.005 mg/ml,1.76 × 10^−2
same,RE*Mb (AU) (msrb relative expression),[1]; 0.005 mg/ml,3.516 × 10^−2 AU
same,% Control (msrb/G3PDH),[1]; 0.005 mg/ml,127%
same,Mb Cycles (msrb),[1]; 0.005 mg/ml,24.68 and 24.86 and 24.75
same,Mb/G3PDH (msrb/G3PDH),[1]; 0.01 mg/ml,2.05 × 10^−2
same,RE*Mb (AU) (msrb relative expression),[1]; 0.01 mg/ml,4.018 × 10^−2 AU
same,% Control (msrb/G3PDH),[1]; 0.01 mg/ml,148%
same,Mb Cycles (msrb),[1]; 0.01 mg/ml,24.62 and 24.60 and 24.49
same,DNP marking/No. of cells,[2]; 0.001% lipochroman,82.1 B
same,DNP marking/surface area measured,[2]; 0.001% lipochroman,28.7% D
same,Surface area DNP marking,[2]; 0.001% lipochroman,3776 C
same,"Proportion of oxidized proteins/cells, KHN 0002","[2]; 0.001% lipochroman-6, 48 h",76.3
same,"Proportion of oxidized proteins/cells, KHN 9726","[2]; 0.001% lipochroman-6, 48 h",88
same,"Proportion of oxidized proteins/cells, Mean","[2]; 0.001% lipochroman-6, 48 h",82.1
same,DNP marking/No. of cells,[2]; 0.002% lipochroman,52.0 A
same,DNP marking/surface area measured,[2]; 0.002% lipochroman,18.4% B
same,Surface area DNP marking,[2]; 0.002% lipochroman,2415 B
same,"Proportion of oxidized proteins/cells, KHN 0002","[2]; 0.002% lipochroman-6, 48 h",60.9
same,"Proportion of oxidized proteins/cells, KHN 9726","[2]; 0.002% lipochroman-6, 48 h",43
same,"Proportion of oxidized proteins/cells, Mean","[2]; 0.002% lipochroman-6, 48 h",52
same,Mb/G3PDH (msra/G3PDH),[3]; 0.005 mg/ml,4.14 × 10^−3
same,RE*Mb (AU) (msra relative expression),[3]; 0.005 mg/ml,8.251 × 10^−3 AU
same,% Control (msra/G3PDH),[3]; 0.005 mg/ml,116%
same,Mb Cycles (msra),[3]; 0.005 mg/ml,26.84 and 26.91 and 26.81
same,Mb/G3PDH (msra/G3PDH),[3]; 0.01 mg/ml,4.42 × 10^−3
same,RE*Mb (AU) (msra relative expression),[3]; 0.01 mg/ml,8.66 × 10^−3 AU
same,% Control (msra/G3PDH),[3]; 0.01 mg/ml,124%
same,Mb Cycles (msra),[3]; 0.01 mg/ml,26.83 and 26.79 and 26.73
same,Increase of Msr activity,[4],44%
